# Experimental data reported in ChEMBL document CHEMBL1201862, “PubChem BioAssay data set” (2004).
# Where “and” joins values, the source holds several entries; their conditions need not be identical. Equal entries are not always repeated. Calls of active or inactive are those of the source. For most assays here, no stated cut-off is given here; in the data, actives have a measured EC50 and inactives only a lower limit.
# How the values were obtained:
# [1] = target: T1, Heat shock factor protein 1 (Mus musculus, UniProt P38532); assay: inhibition of MG132-induced HSE-luciferase signal, confirmation, cell-based, NIH3T3, luminescence, dose retest (AID 2382); type: functional;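 further: NIH3T3 fibroblasts with HSF1-driven luciferase reporter stressed by proteasome inhibitor MG132; luminescence from HSF1-driven luciferase expression after 8 hours of MG132 stress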
# T1 sequence (P38532 whole entry): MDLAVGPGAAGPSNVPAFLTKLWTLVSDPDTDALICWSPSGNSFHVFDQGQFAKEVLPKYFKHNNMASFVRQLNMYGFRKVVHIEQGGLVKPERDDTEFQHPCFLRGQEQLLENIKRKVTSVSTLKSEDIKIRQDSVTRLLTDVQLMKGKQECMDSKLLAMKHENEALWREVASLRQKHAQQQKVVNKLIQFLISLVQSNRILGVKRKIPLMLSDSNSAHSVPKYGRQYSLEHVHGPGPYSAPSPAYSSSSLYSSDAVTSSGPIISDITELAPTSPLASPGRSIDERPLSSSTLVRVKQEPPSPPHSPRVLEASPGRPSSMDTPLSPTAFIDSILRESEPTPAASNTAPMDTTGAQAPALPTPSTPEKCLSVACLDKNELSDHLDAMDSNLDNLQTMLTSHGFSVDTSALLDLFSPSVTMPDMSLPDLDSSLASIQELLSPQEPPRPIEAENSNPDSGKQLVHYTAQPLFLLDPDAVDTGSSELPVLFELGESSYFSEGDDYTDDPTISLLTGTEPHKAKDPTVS
# [2] = target: Cytochrome P450 2D6 (Homo sapiens, UniProt P10635);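 further: CYP2D6 member of a cytochrome P450 panel assay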
# Sequence of Cytochrome P450 2D6 (P10635 whole entry): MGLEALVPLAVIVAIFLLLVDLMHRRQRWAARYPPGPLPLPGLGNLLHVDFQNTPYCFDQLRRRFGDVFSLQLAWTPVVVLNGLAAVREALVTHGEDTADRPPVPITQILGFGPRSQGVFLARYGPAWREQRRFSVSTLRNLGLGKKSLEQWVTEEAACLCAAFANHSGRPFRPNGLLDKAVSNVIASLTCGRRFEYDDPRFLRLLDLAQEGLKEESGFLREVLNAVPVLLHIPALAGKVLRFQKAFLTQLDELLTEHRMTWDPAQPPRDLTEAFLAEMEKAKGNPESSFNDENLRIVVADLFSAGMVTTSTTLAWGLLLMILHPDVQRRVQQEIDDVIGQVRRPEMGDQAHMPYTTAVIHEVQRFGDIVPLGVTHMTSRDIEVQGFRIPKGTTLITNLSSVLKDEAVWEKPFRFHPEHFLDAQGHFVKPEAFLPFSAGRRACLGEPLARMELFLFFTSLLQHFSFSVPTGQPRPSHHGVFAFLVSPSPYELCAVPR
# [3] = inhibitors of intracellular T. cruzi replication, confirmation, NIH3T3 host cells, beta-gal luminescence (AID 2044); type: functional, cell-based;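 further: intracellular parasites grown in NIH/3T3 mouse fibroblasts as host cells; luminescent beta-galactosidase reporter signal from transgenic T. cruzi replicating inside host cells; inhibitors lower the luminescence signal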
# [4] = cytotoxicity toward NIH3T3 fibroblasts, dose response, counter-screen, cell-based, ATP luminescence, mouse fibroblasts (AID 2010); type: functional;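 further: cells exposed to compound for about 90 hours before reading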
# [5] = target: Cytochrome P450 3A4 (Homo sapiens, UniProt P08684);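 further: CYP3A4 tested as one member of a cytochrome P450 panel screen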
# Sequence of Cytochrome P450 3A4 (P08684 whole entry): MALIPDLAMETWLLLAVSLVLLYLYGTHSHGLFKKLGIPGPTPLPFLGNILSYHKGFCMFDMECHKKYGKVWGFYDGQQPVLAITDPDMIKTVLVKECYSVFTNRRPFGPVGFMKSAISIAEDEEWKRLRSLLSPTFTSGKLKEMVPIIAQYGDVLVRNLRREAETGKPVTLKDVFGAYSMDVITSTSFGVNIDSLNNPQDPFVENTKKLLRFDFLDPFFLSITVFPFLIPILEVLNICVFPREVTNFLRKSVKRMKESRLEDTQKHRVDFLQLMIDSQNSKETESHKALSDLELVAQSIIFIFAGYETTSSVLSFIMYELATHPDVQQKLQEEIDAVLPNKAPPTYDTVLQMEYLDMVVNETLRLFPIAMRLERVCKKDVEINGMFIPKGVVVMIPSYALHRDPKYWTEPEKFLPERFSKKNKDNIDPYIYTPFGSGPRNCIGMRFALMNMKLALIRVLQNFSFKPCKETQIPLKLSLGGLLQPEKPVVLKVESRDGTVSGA
# [6] = tested on: Streptococcus; assay: Group A Streptococcus viability loss, dose response, counter-screen for streptokinase expression inhibitor project, luminescence, BacTiterGlo (AID 1915); type: functional, organism-based;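 further: potency for reduction of bacterial viability or growth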
# [7] = tested on: Streptococcus sp. 'group A'; assay: growth inhibition of control SK(-) GAS strain, dose response, counter-screen for streptokinase expression inhibitor project, luminescence, kanamycin, BacTiterGlo, confirmation (AID 1900); type: functional, organism-based
compound,measurement,setting,value
CCOC(=O)c1cccc(NC(=O)CCS(=O)(=O)c2ccc(Br)s2)c1,EC50,[1],> 195 µM (not active)
COC(=O)[C@@H]1c2cc3c(c(O)c2[C@@H](O)C[C@]1(C)O)C(=O)c1c(O)cc2c(c1C3=O)O[C@H]1O[C@@]2(C)[C@@H](O)[C@H](N(C)C)[C@H]1O,AC50,[2],5.01 µM (inconclusive)
COc1ccc(NC(=O)CCOc2ccccc2)cc1,AC50,[2],22.4 µM (inconclusive)
CCc1cccc2c(-c3ccccc3)c3c(nc12)OCC3,AC50,[2],15.8 µM (inconclusive)
Cc1ccc2[nH]c(SCc3nc(O)c4cnn(-c5ccccc5)c4n3)nc2c1,AC50,[2],28.2 µM (inconclusive)
CCOC(=O)C1(CCOc2ccccc2)CCN(Cc2cccc3c2OCO3)CC1,EC50,[3],2100 nM (active)
same,EC50,[4],> 60 µM (not active)
O=C(CSC1=NCCN1)Nc1ccccc1,AC50,[5],5.01 µM (inconclusive)
COC1CCN(Cc2c(C(=O)N3CCN(C4CCCCC4)CC3)nc3ccccn23)CC1,EC50,[3],1630 nM (active)
same,EC50,[4],> 60 µM (not active)
O=C(c1ccncc1)N1CCN(c2ccc(F)cc2)CC1,EC50,[1],> 195 µM (not active)
Cc1cnc(CNc2ncncc2-c2ccccc2C)cn1,AC50,[2],12.6 µM (inconclusive)
COCC(=O)N1CCC2(CC1)CN(c1ccccn1)C2,AC50,[2],20 µM (inconclusive)
Cc1cc(C(F)(F)F)nc(SCc2ccc(C(=O)O)o2)n1,EC50,[1],> 195 µM (not active)
Cc1ccc(C(=O)N/C(=C\c2ccc(Br)cc2)c2n[nH]c(S)n2)cc1,AC50,[2],31.6 µM (inconclusive)
same,EC50,[1],> 195 µM (not active)
CCOc1ccc(C(=O)c2ccc([N+](=O)[O-])cc2Cl)cc1,EC50,[3],2180 nM (active)
same,EC50,[4],> 30 µM (not active)
CN1[C@@H]2CC[C@H]1CC(O[C@@H](c1ccccc1)c1ccc(Cl)cc1)C2 (stereo partly specified),AC50,[5],12.6 µM (inconclusive) and 15.8 µM (inconclusive)
CN(C)c1ncc2nc(-c3ccc(F)cc3)c(=O)n(-c3ccccc3)c2n1,AC50,[2],1.58 µM (inconclusive)
C=CCN1CC[C@]23c4c5ccc(O)c4O[C@@H]2/C(=N/NC(=O)c2ccccc2)CC[C@@]3(O)[C@H]1C5,AC50,[2],15.8 µM (inconclusive)
same,AC50,[5],3.98 µM (inconclusive)
O=C(N/N=C1/C[C@@H](O)[C@@H](O)[C@@H]2[C@H]3C(=O)N(c4ccc(F)cc4F)C(=O)[C@@H]3CC[C@H]12)OCc1ccccc1,AC50,[5],3.98 µM (inconclusive)
Fc1cccc(NC(=S)N2CCn3cccc3C2c2cccnc2)c1 (stereo unspecified),EC50,[3],885 nM (active)
same,EC50,[4],> 60 µM (not active)
CCOC(=O)C1(Cc2ccccc2C(F)(F)F)CCN(C(C)CCn2cccn2)CC1 (stereo unspecified),EC50,[3],944 nM (active)
same,EC50,[4],> 60 µM (not active)
O=C(c1ccc2c3c(cccc13)CC2)C1CCCN(Cc2cccnc2)C1 (stereo unspecified),EC50,[3],709 nM (active)
same,EC50,[4],> 60 µM (not active)
O=S(=O)(Nc1ccc2oc(-c3ccccc3)nc2c1)c1ccccc1,AC50,[2],25.1 µM (inconclusive)
C/C(CCC(=O)OC[C@@H]1O[C@H](C#Cc2ccccc2)C=C[C@@H]1Oc1ccc(C)cc1)=N/OC[C@@H](C)[C@H](OCc1ccccc1)C(C)C,AC50,[5],3.98 µM (inconclusive)
O=[N+]([O-])c1nn(-c2ccc3c(c2)OCCO3)[n+]([O-])c1NCc1ccc(F)cc1,EC50,[3],595 nM (active)
same,EC50,[4],> 60 µM (inconclusive)
O=C(NCC1CCCO1)c1onc(CSc2ccc(Cl)cc2)c1C(=O)O (stereo unspecified),EC50,[1],9.58 µM (active)
O=C(NC(=S)Nc1ccc2c(c1)OCO2)c1ccccc1,AC50,[2],3.55 µM (inconclusive)
CCCCCC(=O)N1CCCC(c2nc(-c3ccc(OC)cc3)no2)C1 (stereo unspecified),AC50,[2],15.8 µM (inconclusive)
CCN1CCN(CCNC(=O)CCCCCn2c(=O)[nH]c3cc(C(=O)OC)ccc3c2=O)CC1,EC50,[1],> 195 µM (not active)
COc1ccc(C(=O)N2CCC3(CCCN(Cc4ccccc4)C3)CC2)cc1,AC50,[5],31.6 µM (inconclusive)
CN(Cc1ccccc1)C(=O)c1ccccc1NC(=O)C1=CSCCO1,EC50,[1],> 195 µM (not active)
CC(C)n1cc(CN2CCN(C)C(CCO)C2)c2ccccc21 (stereo unspecified),EC50,[3],109 nM (active)
same,EC50,[4],> 60 µM (not active)
CNC[C@H](O)c1ccc(OC(=O)C(C)(C)C)c(OC(=O)C(C)(C)C)c1,AC50,[5],10 µM (inconclusive)
C=CCN(c1ccccc1)S(=O)(=O)c1cccc(C(=O)NC2CCN(Cc3ccccc3)CC2)c1,EC50,[3],215 nM (active)
same,EC50,[4],26.8 µM (active)
CC(C)CNC(=O)C1CCN(Cc2ccc(OCc3ccccc3)cc2)CC1,EC50,[1],> 195 µM (not active)
COc1cc(C(=O)NC2CCN(Cc3nnnn3Cc3cccs3)CC2)cc(OC)c1OC,EC50,[1],> 195 µM (not active)
Cc1ccc(NC(=O)c2cc(NC(=O)c3ccco3)ccc2N2CCOCC2)cc1,EC50,[1],> 195 µM (not active)
CCC(C)(NC(=O)c1ccccc1)C(=O)O (stereo unspecified),EC50,[1],> 195 µM (not active)
Cc1cc(C(F)F)nn1CC(=O)NC1C(=O)N2C(C(=O)O)=C(CSc3nnnn3C)CSC12 (stereo unspecified),EC50,[6],106 nM (active)
same,EC50,[7],90 nM (active)
Cc1c(-c2cccc(NC(=O)c3ccco3)c2)nc2ncccn12,EC50,[3],1780 nM (active)
same,EC50,[4],> 60 µM (not active)
O=c1c(CCc2ccccc2)nc2cncnc2n1Cc1ccc(F)cc1,AC50,[2],25.1 µM (inconclusive)
COc1ccc(CN(C)CC(O)COc2ccc(-c3ccccc3)cc2)cc1OC (stereo unspecified),EC50,[3],447 nM (active)
same,EC50,[4],21.7 µM (active)
COc1ccc(NC(=O)c2cc3cc(OC)ccc3oc2=N)cc1,EC50,[1],> 195 µM (not active)
Cc1cccc2nc(CNC(=O)CC3C(=O)NCCN3Cc3cccc(F)c3)cn12 (stereo unspecified),EC50,[3],> 60000 nM (not active)
same,EC50,[4],> 60 µM (not active)
CCOC(=O)N1CCN(Cc2nc3c(c(=O)n(C)c(=O)n3C)n2Cc2ccccc2)CC1,EC50,[1],> 195 µM (not active)
Cc1cccc(CNc2cc(-c3ccccc3Cl)ncn2)c1,AC50,[2],39.8 µM (inconclusive)
COc1ccc(OC)c2nc(O)c(CCNC(=O)c3ccc(S(=O)(=O)N4CCCC4)cc3)cc12,AC50,[2],20 µM (inconclusive)
C/C(N)=C(/C#N)C(=O)CSc1nc2scc(-c3ccc(F)cc3)c2c(=O)n1C,EC50,[6],3170 nM (active)
same,EC50,[7],2000 nM (active)
CCCOc1ccc(CNC(=S)N/N=C/c2ccc([N+](=O)[O-])cc2)cc1,EC50,[3],1990 nM (active)
same,EC50,[4],> 60 µM (not active)
Cc1ccc(C(=O)N/N=C\c2ccc([N+](=O)[O-])o2)cn1,EC50,[3],238 nM (active)
same,EC50,[4],> 60 µM (not active)
C/C(=N\NC(=O)CC1N=C(Cc2ccccc2)NNC1=O)c1ccc(Cl)cc1Cl (stereo unspecified),AC50,[2],15.8 µM (inconclusive)
Clc1cc(/C=N\NC2=NCCN2)cc(Cl)n1,EC50,[3],663 nM (active)
same,EC50,[4],> 60 µM (not active)
CCO/C(O)=C1\C(C)=NC(=S)NC1c1ccsc1 (stereo unspecified),EC50,[1],> 195 µM (not active)
